From US20120165319A1, “INHIBITORS OF INTERLEUKIN-1 BETA CONVERTING ENZYME” (VERTEX PHARMACEUTICALS INCORPORATED, priority 1995, published 2012) come the findings set out here.

Assay [1] has as its system IL-1β, human whole blood. Briefly: Whole blood assay for IL-1β production. The class given is cell-based. In short, it runs like this: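 Human whole blood collected on Na2EDTA was treated with serially diluted compound in saline and then stimulated with LPS at 5.0 ng/ml final, for 16-18 h at 30 °C, in duplicate or triplicate. Plasma IL-1β was measured by ELISA at 1:200 dilution.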

Assay [2] concerns IL-1β production, LPS-challenged mice. Briefly: In vivo acute assay for efficacy as anti-inflammatory agent: LPS-induced IL-1β production in mice. Also noted: species or system mouse. As to conditions: LPS challenged mice, 50 mg/kg; for Inhibition of IL-1β Production, compound administered 0 hr relative to LPS challenge / Inhibition of IL-1β Production, compound administered +1 hr relative to LPS challenge / Inhibition of IL-1β Production, compound administered −1 hr relative to LPS challenge / Inhibition of IL-1β Production, compound administered −2 hr relative to LPS challenge: PO, * = values obtained in subsequent assays (Table 4); for inhibition at 50 mg/kg: Mus musculus, po, compound PO, read-out: percent inhibition of IL-1β production. In short, it runs like this: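 CD1 mice (n=6) were challenged with LPS 20 mg/kg IP and given compound IP in olive oil:DMSO:ethanol (90:5:5) 1 h after LPS, or at the time of challenge for some analogs. Blood was taken 7 h after LPS and serum IL-1β was measured by ELISA. Oral gavage at 50 mg/kg was also tested.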

[3] abbreviates: Homo sapiens, * = values obtained upon reassay, read-out: Whole human blood IC50.
[4] abbreviates: 0 h, administered 0 h relative to time of LPS challenge.
Where [5] appears, read: 1 h, administered +1 h relative to time of LPS challenge.
[6] abbreviates: 1 h, administered −1 h relative to time of LPS challenge.
Where [7] appears, read: 2 h, administered −2 h relative to time of LPS challenge.
[8] abbreviates: * = values obtained upon reassay, read-out: Whole human blood IC50.

SMILES strings stand for the structures. “And” between values parts separate entries of the source, which are not always exact repeats. Equal values may be shown once. Read-outs that look alike come from different tables or passages of the source.

Turning to `CCOC(=O)C[C@H](NC(=O)[C@@H]1CCCN2C(=O)CC[C@H](NC(=O)c3ccccc3)C(=O)N12)C(OCC)OCC` [Compound 2100b], in assay [1] (setting [3]), the IC50 is above 20 µM. Moreover, in assay [2], the “Inhibition of IL-1β Production, compound administered 0 hr relative to LPS challenge” value amounted to 47%; the “Inhibition of IL-1β Production, compound administered +1 hr relative to LPS challenge” value amounted to 26%; the “Inhibition of IL-1β Production, compound administered −1 hr relative to LPS challenge” value was found to be 0%; the “Inhibition of IL-1β Production, compound administered −2 hr relative to LPS challenge” value amounted to 0%.
As to `O=C(O)C[C@H](NC(=O)[C@@H]1CCCN2C(=O)CC[C@H](NC(=O)OCc3ccccc3)C(=O)N12)C(=O)COC(=O)c1c(Cl)cccc1Cl` [Compound 217d, [3S(1S,9S)]3-(9-Benzyloxycarbonylamino-6,10-dioxo-1,2,3,4,7,8,9,10-octahydro-6H-pyridazino[1,2-a][1,2]-diazepine-1-carboxamido)-5-(2,6-dichlorobenzoyloxy)-4-oxopentanoic acid], the IC50 in assay [1] (setting [3]) came out at 4 µM.
Same read-out and setting: for `CS(=O)(=O)N[C@H]1CCC(=O)N2CCC[C@@H](C(=O)N[C@@H](CC(=O)O)C(=O)COC(=O)c3c(Cl)cccc3Cl)N2C1=O` [Compound 138] the value was 2.9 µM.
On the same count and under the same terms, for `CC(=O)N[C@H]1CCC(=O)N2CCC[C@@H](C(=O)N[C@@H](CC(=O)O)C(=O)COC(=O)c3c(Cl)cccc3Cl)N2C1=O` [Compound 217c, [3S(1S,9S)]3-(9-Acetylamino-6,10-dioxo-1,2,3,4,7,8,9,10-octahydro-6H-pyridazino-[1,2-a][1,2]diazepine-1-carboxamido)-5-(2,6-dichlorobenzoyloxy)-4-oxopentanoic acid] the value was 7 µM.
For `CC(C)OC(=O)C[C@H](NC(=O)[C@@H]1CCCN2C(=O)CC[C@H](NC(=O)c3ccccc3)C(=O)N12)C(OC(C)C)OC(C)C` [Compound 2100d], the IC50 in assay [1] (setting [3]) was above 20 µM. Further, in assay [2], the “Inhibition of IL-1β Production, compound administered 0 hr relative to LPS challenge” value is 52%; the “Inhibition of IL-1β Production, compound administered +1 hr relative to LPS challenge” value is reported as 26%; the “Inhibition of IL-1β Production, compound administered −1 hr relative to LPS challenge” value was found to be 35%; the “Inhibition of IL-1β Production, compound administered −2 hr relative to LPS challenge” value worked out at 42%.
A word on the inhibition: it is the drop in the measured response relative to a control, in per cent. For `O=C1C[C@H](NC(=O)[C@@H]2CCCN3C(=O)CC[C@H](NC(=O)c4ccccc4)C(=O)N23)[C@H](OCc2ccccc2)O1` [Compound 2100o, [1S,9S(2R,3S)]9-Benzoylamino-N-(2-benzyloxy-5-oxotetrahydrofuran-3-yl)-6,10-dioxo-1,2,3,4,7,8,9,10-octahydro-6H-pyridazino[1,2-a][1,2]diazepine-1-carboxamide], the IC50 in assay [1] (Homo sapiens, Table 17, read-out: Whole human blood IC50) turned out to be 1.5 µM. For the same compound, the inhibition at 50 mg/kg in assay [2] (setting [4]) is 68%; in assay [2] (setting [5]) it was 64%; in assay [2] (setting [6]), 44%; in assay [2] (setting [7]), 31%.
Take `O=C[C@H](CC(=O)O)NC(=O)[C@@H]1CCCN2CCC[C@H](NC(=O)c3ccccc3)C(=O)N12` [Compound 246]: the IC50 in assay [1] (setting [3]) was determined as 10 µM.
Regarding `O=C(O)CC(NC(=O)[C@@H]1CCCN2C(=O)CC[C@H](NC(=O)c3ccccc3)C(=O)N12)C(=O)CF` (stereo partly drawn) [Compound 230e, [3RS,(1S,9S)]3-(9-Benzoylamino-6,10-dioxo-1,2,3,4,7,8,9,10-octahydro-6H-pyridazino[1,2-a][1,2]-diazepine-1-carboxamido)-5-fluoro-4-oxopentanoic acid], the IC50 in assay [1] (setting [8]) came out at 0.3 µM.
For the compound `O=C(O)C[C@H](NC(=O)[C@@H]1CCCN2C(=O)CC[C@H](NC(=O)CCc3ccccc3)C(=O)N12)C(=O)CSCc1ccccc1Cl` [Compound 125b, [3S(1S,9S)]-3-(6,10-dioxo-1,2,3,4,7,8,9,10-octahydro)-9-(3-phenylpropionyl-amino)-6H-pyridazine[1,2-a][1,2]diazepine-1-carboxamido-5-(2-chlorophenyl-methylthio)-4-oxopentanoic acid], the IC50 in assay [1] (setting [3]) stood at 4.5 µM.
Still for that read-out and setting: the value for `CC(=O)N1C[C@H](NC(=O)c2ccc3ccccc3c2)C(=O)N(CC(=O)N[C@H](C=O)CC(=O)O)c2ccccc21` [Compound 605n] was above 20 µM.
As for `CC(C)OC1OC(=O)C[C@@H]1NC(=O)[C@@H]1CCCN2C(=O)CC[C@H](NC(=O)c3ccccc3)C(=O)N12` (stereo partly drawn) [Compound 2100a, [1S,9S(2RS,3S)]9-Benzoylamino-6,10-dioxo-1,2,3,4,7,8,9,10-octahydro-N-(2-isopropoxy-5-oxo-tetrahydro-furan-3-yl)-6H-pyridazino-[1,2-a][1,2]diazepine-1-carboxamide], in assay [1] (setting [3]), the IC50 was found to be 0.85 µM. Also, in assay [2], the “Inhibition of IL-1β Production, compound administered 0 hr relative to LPS challenge” value is recorded as 67%; the “Inhibition of IL-1β Production, compound administered +1 hr relative to LPS challenge” value is given as 58%; the “Inhibition of IL-1β Production, compound administered −1 hr relative to LPS challenge” value worked out at 71%; the “Inhibition of IL-1β Production, compound administered −2 hr relative to LPS challenge” value is recorded as 8%.
On the same counts, the results for `COC(=O)C[C@H](NC(=O)[C@@H]1CCCN2C(=O)CC[C@H](NC(=O)c3ccccc3)C(=O)N12)C(OC)OC` [Compound 2100c] are above 20 µM, 85%, 40%, 0% and 0%.
With `O=C(O)C[C@H](NC(=O)[C@@H]1CCCN2C(=O)CC[C@H](NC(=O)c3ccccc3)C(=O)N12)C(=O)c1nc2cc(Cl)cc(Cl)c2o1` [Compound 223e, [3S(1S,9S)]3-(9-Benzoylamino-6,10-dioxo-1,2,3,4,7,8,9,10-octahydro-6H-pyridazino-[1,2-a][1,2]diazepine-1-carboxamido)-4-(5,7-dichlorobenzoxazol-2-yl)-4-oxobutanoic acid], in assay [1] (setting [3]), the IC50 was above 20 µM.
Consider `O=C1C[C@H](NC(=O)[C@@H]2CCCN3C(=O)CC[C@H](NC(=O)c4ccccc4)C(=O)N23)C(OCc2ccccc2)O1` (stereo partly drawn) [Compound 213e, [1S,9S(2RS,3S)]9-Benzoylamino-6,10-dioxo-1,2,3,4,7,8,9,10-octahydro-N-(2-benzyloxy-5-oxotetrahydrofuran-3-yl)-6H-pyridazino[1,2-a][1,2]-diazepine-1-carboxamide], for which the IC50 in assay [1] (setting [8]) turned out to be 0.4 µM. In addition, in assay [1] (setting [3]), the IC50 was 0.6 µM. Moreover, in assay [2], the “Inhibition of IL-1β Production, compound administered 0 hr relative to LPS challenge” value came to 41%; the “Inhibition of IL-1β Production, compound administered +1 hr relative to LPS challenge” value stood at 89%; the “Inhibition of IL-1β Production, compound administered −1 hr relative to LPS challenge” value came to 48%; the “Inhibition of IL-1β Production, compound administered −2 hr relative to LPS challenge” value was found to be 0%.
For the compound `O=C1C[C@H](NC(=O)[C@@H]2CCCN3C(=O)CC[C@H](NC(=O)C(=O)c4ccccc4)C(=O)N23)C(OCc2ccccc2)O1` (stereo partly drawn) [Compound 2001, [1S,9S(2RS,3S)]9-Benzoylformylamino-6,10-dioxo-1,2,3,4,7,8,9,10-octahydro-N-(2(R,S)-benzyloxy-5-oxotetrahydrofuran-3-yl)-6H-pyridazino[1,2-a][1,2]-diazepine-1-carboxamide], the IC50 in assay [1] (setting [3]) stood at 3.5 µM. Besides, in assay [2], the “Inhibition of IL-1β Production, compound administered 0 hr relative to LPS challenge” value is ~57% and 58* %; the “Inhibition of IL-1β Production, compound administered +1 hr relative to LPS challenge” value is ~54% and 55* %; the “Inhibition of IL-1β Production, compound administered −1 hr relative to LPS challenge” value was ~62% and 62* %; the “Inhibition of IL-1β Production, compound administered −2 hr relative to LPS challenge” value was ~63% and 64* %. Also, the inhibition at 50 mg/kg in assay [2] (setting [4]) turned out to be 58%. Besides, the inhibition at 50 mg/kg in assay [2] (setting [5]) is 55%. Also, the inhibition at 50 mg/kg in assay [2] (setting [6]) was determined as 62%. Further, the inhibition at 50 mg/kg in assay [2] (setting [7]) was found to be 64%.
On to `O=C(O)C[C@H](NC(=O)[C@@H]1CCCN2C(=O)CC[C@H](NC(=O)CCc3ccccc3)C(=O)N12)C(=O)COC(=O)c1c(Cl)cccc1Cl` [Compound 136], for which the IC50 in assay [1] (setting [3]) was 2.8 µM.
Still for that read-out and setting: for `COc1cccc2nc(C(=O)[C@H](CC(=O)O)NC(=O)[C@@H]3CCCN4C(=O)CC[C@H](NC(=O)CCc5ccccc5)C(=O)N34)oc12` [Compound 135a] the value was 5 µM.
For the compound `CS(=O)(=O)N[C@H]1CCC(=O)N2CCC[C@@H](C(=O)N[C@@H](CC(=O)O)C(=O)COC(=O)c3sccc3Cl)N2C1=O` [505 e, [3S(1S,9S)]5-(3-Chlorothien-2-oyloxy)-3-(6,10-dioxo-9-methanesulphonylamino-1,2,3,4,7,8,9,10-octahydro-6H-pyridazino[1,2-a][1,2]diazepine-1-carboxamido)-4-oxopentanoic acid], the IC50 in assay [1] (Table 18, read-out: Whole human blood IC5O) worked out at 1 µM.
For `O=C(O)C[C@H](NC(=O)[C@@H]1CCCN2C(=O)CC[C@H](NC(=O)CCc3ccccc3)C(=O)N12)C(=O)c1ncc(-c2c(Cl)cccc2Cl)o1` [Compound 137], the IC50 in assay [1] (setting [3]) is 14 µM.
The same measure, in the same setting: the value for `O=C(O)C[C@H](NC(=O)[C@@H]1CCCN2C(=O)CC[C@H](NC(=O)c3ccccc3)C(=O)N12)C(=O)CSCc1ccccc1Cl` [Compound 226e, [3S(1S,9S)]3-(9-Benzoylamino-6,10-dioxo-1,2,3,4,7,8,9,10-octahydro-6H-pyridazino[1,2-a][1,2]-diazepine-1-carboxamido)-5-(2-chlorophenyl)methylthio-4-oxopentanoic acid] was 1.8 µM.
